Data set [1] is described as follows: LCM concentration in serum of dams by UHPLC-QTOF-MS. It is filed as in vivo, mice. The conditions noted are these: female, mouse, intraperitoneal, 24 h post-injection, 2 dams in each dose group (10-120 mg/kg), no relationship with dose. As to the method:
Maternal weights were assessed at the end of the treatment periods. After 14.5 days of gestation (embryonic day14.5, E14.5), blood was extracted from the orbital sinus of the pregnant dams under anaesthesia (70 mg/kg Thiobarbital: Braun Medical S.A. Spain), as described previously[56] and sacrificed by neck dislocation immediately after. Blood samples were centrifuged immediately, and the serum was collected and stored at -80 °C for further chemical analysis.
Samples were extracted as described previously[25] with slight modifications. Briefly, embryos were rinsed with cold saline and ultrapure water, and their wet-weight was determined. They were then homogenized using a 150 T Ultrasonic homogenizer (Fisher Scientific, Spain) and 10 µL of an internal standard solution (IS: aqueous D^3-LCM IS, 5 mg mL^−1) was added to the biological samples (embryos or 50 µL of serum). […] The mixture was vortexed vigorously for 3 min and centrifuged at 13,000 g for 5 min. The supernatant was transferred to a new Eppendorf tube and evaporated to dryness in a stream of nitrogen gas. The residue was reconstituted with 50 µL of LC-MS Ultrapure water, vortexed for 20 s and centrifuged at 13,000 g for 5 min. The supernatant was transferred to a conic micro insert to be injected onto the UHPLC system.
MS spectra data were collected between m/z 50 and 1000, and MS/MS spectra were registered between 50-300 Da. […]

For data set [2], the system named is adult male mice. Kind of data set: Predator test. It is filed as in vivo. The protocol:
(§1) All trials were performed by an experimenter blind to the drug treatment.
Predator test. The predator test was performed in a rectangular arena (55 x 40 x 40 cm) where a small tube was placed in a corner. The subject mouse was first placed in the area with the empty tube for 5 mins and afterwards, the tube was filled with material from a cage that housed a rat and the mice were allowed to explore the entire fear test box for 10 mins. The time spent by the mice sniffing the tube full of the rat’s material was measured with the aid of the camera fitted to the top of the box.

The subject of data set [3] is adult male mice. Kind of data set: Motor activity and exploration in the open field. It is filed as in vivo. The conditions noted are these: high-dose LCM in utero; 3–5 month old mice; 5 minutes. As to the method: as §1
Motor activity in the open field. To evaluate locomotor and exploratory activity, mice were placed in an open field for 5 minutes (38 x 21 x 15 cm: Cybertec S.A., Madrid, Spain). This apparatus consisted of a walled platform containing infrared (IR) emitters and sensors coupled to an actimeter, and the movement sensor was connected to a computer that recorded the number of times the mouse interrupted the IR beams/min. Exploratory activity, was determined through the time the mice interacted with two different objects in a 15 minute session.

Data set [4] has as its system adult male mice. Kind of data set: Y maze working memory test. It is filed as in vivo. The conditions noted are these: mice from dams exposed to LCM vs control. The protocol:
as §1
Y maze. The Y maze used had three equal sized arms (8 x 40 x 20 cm), with white opaque walls at a 120° angle from each other. After introduction to the centre of the maze, the mice was allowed to freely explore the three arms during 5 minutes, recording the number of arm entries and the number of triads in order to calculate the alternation. An entry was considered to occur when all four limbs are within the arm. The success of the triplet was taken into account when mice visited the three arms in three consecutive arm entries showing normal novelty preference and working memory.

Data set [5] concerns adult male mice. Kind of data set: Dark-light emergence task. It is filed as in vivo. The conditions noted are these: 40 mg/kg in utero; 5 minutes. As to the method: as §1
Dark-light emergence task. Anxiety-like behaviour was determined in mice using the dark-light emergence test. Testing was carried out in a white open field (50 x 50 cm) containing a small opaque chamber (12 x 12 cm) situated in the centre. The open field was illuminated by a lamp directed at the centre of the field (120 lux focused on the floor). Mice were moved to the testing room 1 hour prior to behavioural testing and they were introduced into the unfamiliar test environment by placing them into the small chamber and recording their behaviour over 5 minutes with a video camera. The total time spent outside the chamber was then quantified by reviewing the video recording.

Data set [6] has as its system adult male mice. Kind of data set: Sociability test. It is filed as in vivo. As to the method: as §1
Sociability test. The social testing apparatus consisted of a rectangular arena (55 x 40 x 40 cm) in which a small, round wire cage (11 cm in height, with a bottom diameter of 9 cm, vertical bars 0.5 cm and horizontal bars spaced 1 cm apart) was placed in a corner, allowing nose contact between the bars but preventing fighting. The subject mouse was first placed in the arena for 5 minutes with the round wire cage empty. After that, a strange mouse was place in the round cage in […] and the subject was allowed to explore the entire social test box for 10 min. The time spent around the empty and occupied cage was measured with the aid of the camera fitted to the top of the box.

We go through one molecule from article PMC7203245, “Lacosamide intake during pregnancy increases the incidence of foetal malformations and symptoms associated with schizophrenia in the offspring of mice” (Scientific Reports, 2020).

In data set [1], `COC[C@@H](NC(C)=O)C(=O)NCc1ccccc1` [LCM, R-2-acetamido-N-benzyl-3-methoxypropionamide] yielded a concentration at 24 h of 5 to 133 ng/mL. The “time sniffing the predator's material” value in data set [2] (40 mg/kg in utero) was found to be 22.85 ± 4.07%; in data set [2] (120 mg/kg in utero), 22.91 ± 2.08%. Also, in data set [3], the “locomotor activity in open field” value is reported as “enhanced locomotor activity”. Besides, the “arm alternation in Y-maze” value in data set [4] (p = 0.04) is on record as “decrease in alternation”. In addition, the “locomotion in Y-maze” value in data set [4] (p = 0.087) is listed as “mild increase in locomotion”. Further, in data set [5], the “time spent in the dark compartment (emergence test)” value turned out to be 217.2 ± 11.19 s. In addition, the results for the “social interaction with a strange mouse (sniffing time)” value in data set [6] (40 mg/kg in utero) and in data set [6] (120 mg/kg in utero) were 183.4 ± 11.01 s and 172.0 ± 10.78 s, respectively.
